Measurements reported in patent US8716493B2, “Multicyclic compounds and the use thereof” (Cephalon, Inc., priority 2000, dated 2014).
Counter-ions that a name gives are not always drawn.

The molecules below were run against recombinant human PARP (Homo sapiens, UniProt P09874) (assay: Measurement of PARP enzymatic activity (transfer of radiolabeled ADP-ribose from NAD+ to protein acceptor)). Conditions: not given.
Sequence of recombinant human PARP (P09874 whole entry): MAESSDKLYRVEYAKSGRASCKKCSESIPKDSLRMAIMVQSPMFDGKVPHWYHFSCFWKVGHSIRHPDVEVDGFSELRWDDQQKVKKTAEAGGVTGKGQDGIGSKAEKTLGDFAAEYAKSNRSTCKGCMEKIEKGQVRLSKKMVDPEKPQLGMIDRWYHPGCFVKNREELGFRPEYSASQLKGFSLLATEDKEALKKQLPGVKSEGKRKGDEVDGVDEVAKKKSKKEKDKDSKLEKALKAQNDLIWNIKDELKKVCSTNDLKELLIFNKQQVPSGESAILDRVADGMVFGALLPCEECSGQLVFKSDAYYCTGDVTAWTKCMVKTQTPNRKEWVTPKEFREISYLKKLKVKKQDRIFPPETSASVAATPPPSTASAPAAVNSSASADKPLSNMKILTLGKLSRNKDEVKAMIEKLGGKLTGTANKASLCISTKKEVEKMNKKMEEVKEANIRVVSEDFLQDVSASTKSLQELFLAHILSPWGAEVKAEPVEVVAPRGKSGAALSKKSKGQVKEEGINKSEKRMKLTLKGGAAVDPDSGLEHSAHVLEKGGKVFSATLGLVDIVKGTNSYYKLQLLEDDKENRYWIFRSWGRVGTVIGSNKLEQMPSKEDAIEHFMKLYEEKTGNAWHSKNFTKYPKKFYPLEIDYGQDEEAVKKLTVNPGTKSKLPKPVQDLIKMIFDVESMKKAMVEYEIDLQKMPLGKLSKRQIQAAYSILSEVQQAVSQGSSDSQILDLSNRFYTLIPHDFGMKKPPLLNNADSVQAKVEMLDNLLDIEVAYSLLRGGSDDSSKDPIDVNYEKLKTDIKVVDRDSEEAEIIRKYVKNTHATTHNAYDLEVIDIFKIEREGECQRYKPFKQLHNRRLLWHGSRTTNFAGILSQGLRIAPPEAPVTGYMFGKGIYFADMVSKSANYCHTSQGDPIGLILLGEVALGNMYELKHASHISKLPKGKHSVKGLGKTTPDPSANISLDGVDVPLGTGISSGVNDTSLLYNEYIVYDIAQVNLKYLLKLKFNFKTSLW
Assay type: biochemical
Description: PARP activity was monitored by transfer of radiolabeled ADP-ribose units from [^32]NAD^+ to a protein acceptor such as histone or PARP itself. […] The reactions were initiated by the addition of 100 μM NAD^+ supplemented with 2 uCi [^32]NAD^+/mL and maintained at room temperature for 12 minutes. […] The amount of acid-insoluble radioactivity, corresponding to polyADP-ribosylated protein, was quantitated in a Wallac MicroBeta scintillation counter.
Single-point inhibition data were calculated by comparing PARP, VEGFR2, or MLK3 activity in the presence of inhibitor to activity in the presence of DMSO only. Inhibition curves for compounds were generated by plotting percent inhibition versus log10 of the concentration of compound. IC50 values were calculated by nonlinear regression using the sigmoidal dose-response (variable slope) equation in GraphPad Prism as follows: y=bottom+(top−bottom)/(1+10^(log IC50^−x)*Hillslope) where y is the % activity at a given concentration of compound, x is the logarithm of the concentration of compound, bottom is the % inhibition at the lowest compound concentration tested, and top is the % inhibition at the highest compound concentration examined. The values for bottom and top were fixed at 0 and 100, respectively. IC50 values were reported as the average of at least three separate determinations.
For some compounds, inhibiting data is presented as percent inhibition at a specified concentration. Compounds are tabulated together with compound number, substituents, and enzyme inhibition data.
With `O=C1NC(=O)c2c1c1c(c3[nH]c4ccc(C(=O)N5CCC6(CC5)OCCO6)cc4c23)CCC1` [Compound 2db] the IC50 was 11 nM.

Same assay, conditions: PARP IC50 (nM), Table 2
`O=C1NC(=O)c2c1c1c(c3[nH]c4ccc(-c5csc(CNC(=O)C6CC6)n5)cc4c23)CCC1` [Compound 3w] showed an IC50 of 49 nM. With `O=C(CBr)c1ccc2[nH]c3c4c(c5c(c3c2c1)C(=O)NC5=O)CCC4` [Compound 2e] the IC50 was 13 nM.

Same assay, conditions: PARP IC50 (nM), Table 8
`O=C(NCCCn1ccnc1)Oc1ccc2[nH]c3c4c(c5c(c3c2c1)C(=O)NC5=O)CCC4` [Compound 15d] gave an IC50 of 32 nM. `O=C1NC(=O)c2c1c1c(c3[nH]c4ccc(OC(=O)N5CCOCC5)cc4c23)CCC1` [Compound 15a] was tested, and the IC50 was 35 nM. Molecule `COCCNC(=O)Oc1ccc2[nH]c3c4c(c5c(c3c2c1)C(=O)NC5=O)CCC4` [Compound 15c] has an IC50 of 40 nM. In the case of `O=C(NCCc1ccccn1)Oc1ccc2[nH]c3c4c(c5c(c3c2c1)C(=O)NC5=O)CCC4` [Compound 15g], the IC50 is reported as 36 nM. For `O=C(NN1CCOCC1)Oc1ccc2[nH]c3c4c(c5c(c3c2c1)C(=O)NC5=O)CCC4` [Compound 15k], the IC50 was 20 nM. Work on `O=C1NC(=O)c2c1c1c(c3[nH]c4ccc(OC(=O)N5CCN(CCO)CC5)cc4c23)CCC1` [Compound 15l] yielded an IC50 of 15 nM. `CN(CCc1ccccn1)C(=O)Oc1ccc2[nH]c3c4c(c5c(c3c2c1)C(=O)NC5=O)CCC4` [Compound 15h] gave an IC50 of 39 nM.

Same assay, conditions: Table 1; read-out: PARP IC50
`NCC(=O)N1C(=O)c2c3c(c4[nH]c5ccccc5c4c2C1=O)CCC3` [Compound 1m] was tested, and the IC50 was 38 nM. `NCCCC[C@H](N)C(=O)n1c2ccccc2c2c3c(c4c(c21)CCC4)C(=O)NC3` [Compound 1v, 11-L-Lysyl-5,7,8,9,10,11-hexahydrocyclopent[a]pyrrolo[3,4-c]carbazole-7(6H)-one dihydrochloride] was tested, and the IC50 was 1400 nM. Work on `O=C1c2c3c(c4[nH]c5ccccc5c4c2C(=O)N1CCCO)CCC3` [Compound 1e] yielded an IC50 of 946 nM. `O=C1c2c3c(c4[nH]c5ccccc5c4c2C(=O)N1CCOCc1ccccc1)CCC3` [Compound 1n] was tested, and the IC50 was 1600 nM.

Same assay, conditions: Table 2; read-out: PARP IC50
`NCc1ccc2[nH]c3c4c(c5c(c3c2c1)C(=O)NC5=O)CCC4` [Compound 2p, 3-(Aminomethyl)-5,7,8,9,10,11-hexahydrocyclopent[a]pyrrolo[3,4-c]carbazole-5(6H), 7-dione hydrochloride] was tested, and the IC50 was 13 nM. With `O=C1NC(=O)c2c1c1c(c3[nH]c4ccc(CN5CCCCC5)cc4c23)CCC1` [Compound 2bx] the IC50 was 35 nM. `NCCc1ccc2[nH]c3c4c(c5c(c3c2c1)C(=O)NC5=O)CCC4` [Compound 2be] was tested, and the IC50 was 36 nM. `CC(C)(C)S(=O)(=O)Cc1nc(-c2ccc3[nH]c4c5c(c6c(c4c3c2)C(=O)NC6=O)CCC5)cs1` [Compound 3p] gave an IC50 of 21 nM. With `CC(Br)C(=O)c1ccc2[nH]c3c4c(c5c(c3c2c1)C(=O)NC5=O)CCC4` (centres unmarked) [Compound 2f] the IC50 was 21 nM. For `CCC(=O)NCc1nc(-c2ccc3[nH]c4c5c(c6c(c4c3c2)C(=O)NC6=O)CCC5)cs1` [Compound 3s], the IC50 was 56 nM. `CCN(CC)C(=O)CCC(=O)c1ccc2[nH]c3c4c(c5c(c3c2c1)C(=O)NC5=O)CCC4` [Compound 4i] was tested, and the IC50 was 12 nM. Molecule `CC(C)(C)OC(=O)N[C@@H](CCCNc1nc(-c2ccc3[nH]c4c5c(c6c(c4c3c2)C(=O)NC6=O)CCC5)cs1)C(=O)OC(C)(C)C` [Compound 3e] has an IC50 of 46 nM. With `O=C(O)CCCC(=O)c1ccc2[nH]c3c4c(c5c(c3c2c1)C(=O)NC5=O)CCC4` [Compound 4n] the IC50 was 2 nM. For `O=C(NCC1CCCO1)c1ccc2[nH]c3c4c(c5c(c3c2c1)C(=O)NC5=O)CCC4` (centres unmarked) [Compound 2cr], the IC50 was 14 nM. `NCCCC(=O)NCc1ccc2[nH]c3c4c(c5c(c3c2c1)C(=O)NC5=O)CCC4` [Compound 2y, 3-(N-(4-(Amino)butanoyl)aminomethyl)-5,7,8,9,10,11-hexahydrocyclopent[a]pyrrolo[3,4-c]carbazole-5(6H), 7-dione] gave an IC50 of 54 nM. In the case of `O=C(NCc1ccncc1)c1ccc2[nH]c3c4c(c5c(c3c2c1)C(=O)NC5=O)CCC4` [Compound 2ci], the IC50 is reported as 13 nM. Molecule `O=C(CN1CCCC1C(=O)O)c1ccc2[nH]c3c4c(c5c(c3c2c1)C(=O)NC5=O)CCC4` (centres unmarked) [Compound 4c] has an IC50 of 7 nM. `O=C1NC(=O)c2c1c1c(c3[nH]c4ccc(CO)cc4c23)CCC1` [Compound 2aw] showed an IC50 of 22 nM. `O=C(O)CCC(=O)c1ccc2[nH]c3c4c(c5c(c3c2c1)C(=O)NC5=O)CCC4` [Compound 2m] gave an IC50 of 3 nM. `CN(Cc1ccncc1)C(=O)c1ccc2[nH]c3c4c(c5c(c3c2c1)C(=O)NC5=O)CCC4` [Compound 2cx] gave an IC50 of 10 nM. In the case of `O=C(CCC(=O)N1CCCCCCC1)c1ccc2[nH]c3c4c(c5c(c3c2c1)C(=O)NC5=O)CCC4` [Compound 4s], the IC50 is reported as 26 nM. For `O=C(CCC(=O)N1CCOCC1)c1ccc2[nH]c3c4c(c5c(c3c2c1)C(=O)NC5=O)CCC4` [Compound 4f], the IC50 was 13 nM. `O=C(NCCc1ccccn1)c1ccc2[nH]c3c4c(c5c(c3c2c1)C(=O)NC5=O)CCC4` [Compound 2cv] gave an IC50 of 18 nM. With `O=C1NC(O)c2c1c1c(c3[nH]c4ccccc4c23)CCC1` (centres unmarked) [Compound 2ay] the IC50 was 408 nM. Work on `CC(=O)Nc1nc(-c2ccc3[nH]c4c5c(c6c(c4c3c2)C(=O)NC6=O)CCC5)c[nH]1` [Compound 3l] yielded an IC50 of 47 nM. With `O=C(CCC(=O)c1ccc2[nH]c3c4c(c5c(c3c2c1)C(=O)NC5=O)CCC4)NCCO` [Compound 4g] the IC50 was 9 nM. `O=C(CCC(=O)N1CCNCC1)c1ccc2[nH]c3c4c(c5c(c3c2c1)C(=O)NC5=O)CCC4` [Compound 4r] gave an IC50 of 15 nM. `CN(C)CCOC(=O)c1ccc2[nH]c3c4c(c5c(c3c2c1)C(=O)NC5=O)CCC4` [Compound 2cz] was tested, and the IC50 was 30 nM. Molecule `NC(=O)[C@@H]1CCCN1C(=O)CCC(=O)c1ccc2[nH]c3c4c(c5c(c3c2c1)C(=O)NC5=O)CCC4` [Compound 4o] has an IC50 of 13 nM. Work on `CC(C)(C)OC(=O)NCCCC(=O)NCc1ccc2[nH]c3c4c(c5c(c3c2c1)C(=O)NC5=O)CCC4` [Compound 2w, 3-(N-(4-(N-Boc-amino)butanoyl)aminomethyl)-5,7,8,9,10,11-hexahydrocyclopent[a]pyrrolo[3,4-c]carbazole-5(6H), 7-dione] yielded an IC50 of 33 nM. With `O=C1NC(=O)c2c1c1c(c3[nH]c4ccc(CNCc5ccccc5)cc4c23)CCC1` [Compound 2bq] the IC50 was 26 nM. With `CN(C)CCCOc1ccc2[nH]c3c4c(c5c(c3c2c1)C(=O)NC5=O)CCC4` [Compound 2as] the IC50 was 100 nM. `CCCN(CCC)Cc1ccc2[nH]c3c4c(c5c(c3c2c1)C(=O)NC5=O)CCC4` [Compound 2bl] was tested, and the IC50 was 16 nM. Molecule `NC(N)=Nc1nc(-c2ccc3[nH]c4c5c(c6c(c4c3c2)C(=O)NC6=O)CCC5)cs1` [Compound 3g] has an IC50 of 19 nM. In the case of `O=C1NC(=O)c2c1c1c(c3[nH]c4ccc(CNCc5ccc6[nH]c7c8c(c9c(c7c6c5)C(=O)NC9=O)CCC8)cc4c23)CCC1` [Compound 2q, Bis-[5(6H), 7-dioxo-5,7,8,9,10,11-hexahydrocyclopent[a]pyrrolo[3,4-c]carbazol-3-ylmethyl]amine hydrochloride], the IC50 is reported as 167 nM. Work on `CC(C)(C)OC(=O)NCCNC(=O)CCC(=O)c1ccc2[nH]c3c4c(c5c(c3c2c1)C(=O)NC5=O)CCC4` [Compound 4d] yielded an IC50 of 16 nM. With `Cc1sc(N)nc1-c1ccc2[nH]c3c4c(c5c(c3c2c1)C(=O)NC5=O)CCC4` [Compound 3d] the IC50 was 50 nM. In the case of `NC(CCCNc1nc(-c2ccc3[nH]c4c5c(c6c(c4c3c2)C(=O)NC6=O)CCC5)cs1)C(=O)O` (centres unmarked) [Compound 3f], the IC50 is reported as 22 nM. `CC(C)(C)C(=O)OCc1nc(-c2ccc3[nH]c4c5c(c6c(c4c3c2)C(=O)NC6=O)CCC5)cs1` [Compound 3y] showed an IC50 of 60 nM. `O=C(CN1CCCCC1)c1ccc2[nH]c3c4c(c5c(c3c2c1)C(=O)NC5=O)CCC4` [Compound 2i] gave an IC50 of 20 nM.

Same assay, conditions: Table 3; read-out: PARP IC50
For `N#Cc1ccc2c(c1)c1c3c(c4c(c1n2C(=O)[C@@H](N)CCCCN)CCC4)C(=O)NC3` [Compound 6j, 3-Cyano-11-L-lysyl-5,7,8,9,10,11-hexahydrocyclopent[a]pyrrolo[3,4-c]carbazole-7(6H)-one dihydrochloride], the IC50 was 460 nM.

Same assay, conditions: Table 7; read-out: PARP IC50
In the case of `COc1ccc2c(c1)[nH]c1c3c(c4c(c12)C(=O)NC4=O)CCC3` [Compound 14a], the IC50 is reported as 224 nM.

Same assay, conditions: Table 18; read-out: PARP IC50
With `CCOCCOc1ccnc2[nH]c3c4c(c5c(c3c12)C(=O)NC5=O)CCC4` [Compound 8ab] the IC50 was 11 nM. With `COc1cccc2[nH]c3c4c(c5c(c3c12)C(=O)N(CN1CCN(C)CC1)C5=O)CCC4` [Compound 16e] the IC50 was 14 nM. For `COc1c(Br)ccc2[nH]c3c4c(c5c(c3c12)C(=O)NC5=O)CCC4` [Compound 14m], the IC50 was 67 nM. `CCOCCOc1cccc2[nH]c3c4c(c5c(c3c12)C(=O)NC5=O)CCC4` [Compound 14i] was tested, and the IC50 was 36 nM. With `COc1c(I)ccc2[nH]c3c4c(c5c(c3c12)C(=O)NC5=O)CCC4` [Compound 14n] the IC50 was 126 nM. In the case of `COc1cc[n+]([O-])c2[nH]c3c4c(c5c(c3c12)C(=O)NC5=O)CCC4` [Compound 8m], the IC50 is reported as 17 nM. For `COc1ccc2[nH]c3c4c(c5c(c3c2c1OC)C(=O)NC5=O)CCC4` [Compound 14l], the IC50 was 21 nM. `COCCOc1ccnc2[nH]c3c4c(c5c(c3c12)C(=O)NC5=O)CCC4` [Compound 8aa] was tested, and the IC50 was 10 nM. With `CC(C)OCCOc1cccc2[nH]c3c4c(c5c(c3c12)C(=O)NC5=O)CCC4` [Compound 14j] the IC50 was 70 nM. `O=C1NC(=O)c2c1c1c(c3[nH]c4c(ccc[n+]4[O-])c23)CCC1` [Compound 8l] gave an IC50 of 38 nM.
